Source: US20210030025A1, “BLOOD-FREE DIET FOR REARING MALARIA MOSQUITO VECTORS” (UNIVERSIDADE NOVA DE LISBOA-INSTITUTO DE HIGIENE E MEDICINA …, priority 2018, published 2021)

Test system: vitellogenin (Vg) transcription in the female mosquito fatbody
Experiment: Vg expression 24 h post-feeding on diets (q-RT-PCR)
Type: in vivo, Anopheles coluzzii
Details: ΔΔCT method
Experimental: FIG. 2a. Effects of the fresh-blood-free diets on oogenesis: Expression of vitellogenin precursor. Relative expression was determined using the ΔΔCT method as fold change to mosquitoes fed on the ILD, where RLD-NoP and ILD-NoP represent liquid diet compositions not supplemented with peptides, blood represent conventional blood diets and the remaining RLDs and ILDs represent respectively Rich Liquid Diet and Initial Liquid Diet supplemented with the correspondent indicated peptide P1 to P6.
Oogenesis was assessed by changes in Vg expression 24 h post-feeding (FIG. 2a). Vg expression levels in the fatbodies was quantified using the ΔΔCT method a) after a blood meal, b) after microinjection with the different peptides, and c) after being fed on the various artificial diets as described in section 4. […]
Quantitative Real-time Polymerase Chain Reaction (q-RT-PCR) analysis was used to quantify the expression of Vitellogenin-1 precursor (Vg), a protein biomarker of mosquito oogenesis initiation. Vg expression levels in the fatbodies were quantified using the ΔΔCT method a) after a blood meal, b) after microinjection with the different peptides, and c) after being fed on the various artificial diets. […]
Oogenesis was assessed by changes in Vg expression 24 h post-feeding mosquitoes with the artificial diets of Examples 1 and 2 and conventional vertebrate blood diet (FIG. 2a). […]

Question: For “Glucagon-like peptide 2 (HADGSFSDEMNTILDNLAARDFINWLIQTKITD; Glucagon-like peptide 2; UniProt P01275 146-178, looked up) [Diet P2, glucagon-like peptide 2 (1-33) (human), from Bachem]”, which “Vg transcript levels after feeding” value is on record?
Answer: significantly increased VTG expression
